Data from patent US20240270809A1, “ORAL GLP RECEPTOR AGONISTS” (priority 2020, published 2024).
Positions of bridges follow the written chain, without caps; N, C: chain ends. Non-standard residues stand in square brackets, D forms with d. Residues, ends and D or L forms follow the SMILES beside them. αMeL = CC(C)C[C@](C)(N)C(=O)O; Nle = CCCC[C@H](N)C(=O)O; Aib = CC(C)(N)C(=O)O

Key:
human GLP1 receptor = molecular target: T1, human GLP1 receptor (Homo sapiens, UniProt P43220); experiment: cAMP accumulation assay, functional agonism of human GLP1 receptor; type: cell-based; details: HEK cells infected with human GLP1 receptor BacMam virus, HTRF cAMP; for Emax: HEK293, read-out: Human GLP-1R agonist cAMP Emax; for EC50: read-out: Human GLP-1R agonist cAMP pEC50 (converted)
T1 construct: expressed in transfected cells; host or cells: HEK cells, BacMam virus transduction
How it was run: (§1)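 HEK cells transduced for 24 hours with human GLP2 or GLP1 receptor BacMam virus were frozen, then stimulated with agonist in HBSS containing 0.5 mM IBMX. After 45 min at 37° C, cAMP was measured by HTRF after adding detection reagents in lysis buffer.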

human GLP2 receptor = molecular target: T2, human GLP2 receptor (Homo sapiens, UniProt O95838); experiment: cAMP accumulation assay, functional agonism of human GLP2 receptor; type: cell-based; details: HEK cells infected with human GLP2 receptor BacMam virus, HTRF cAMP; for Emax: HEK293, read-out: Human GLP-2R agonist cAMP Emax; for EC50: read-out: Human GLP-2R agonist cAMP pEC50 (converted)
T2 construct: expressed in transfected cells; host or cells: HEK cells, BacMam virus transduction
T2 sequence (O95838 1-553): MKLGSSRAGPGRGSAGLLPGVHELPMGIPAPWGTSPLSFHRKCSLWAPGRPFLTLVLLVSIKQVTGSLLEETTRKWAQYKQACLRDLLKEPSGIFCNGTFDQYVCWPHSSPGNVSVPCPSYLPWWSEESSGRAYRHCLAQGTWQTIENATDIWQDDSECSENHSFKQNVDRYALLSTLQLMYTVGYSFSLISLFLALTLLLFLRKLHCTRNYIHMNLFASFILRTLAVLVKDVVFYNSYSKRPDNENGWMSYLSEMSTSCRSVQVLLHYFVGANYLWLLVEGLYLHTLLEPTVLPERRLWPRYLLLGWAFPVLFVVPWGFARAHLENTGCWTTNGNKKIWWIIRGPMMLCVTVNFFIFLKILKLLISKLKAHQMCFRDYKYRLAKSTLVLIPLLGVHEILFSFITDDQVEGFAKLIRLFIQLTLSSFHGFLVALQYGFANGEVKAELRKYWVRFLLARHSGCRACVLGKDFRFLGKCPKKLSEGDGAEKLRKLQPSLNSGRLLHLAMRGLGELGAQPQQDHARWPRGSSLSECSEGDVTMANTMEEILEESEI
How it was run: as §1

T1 sequence (P43220 24-463): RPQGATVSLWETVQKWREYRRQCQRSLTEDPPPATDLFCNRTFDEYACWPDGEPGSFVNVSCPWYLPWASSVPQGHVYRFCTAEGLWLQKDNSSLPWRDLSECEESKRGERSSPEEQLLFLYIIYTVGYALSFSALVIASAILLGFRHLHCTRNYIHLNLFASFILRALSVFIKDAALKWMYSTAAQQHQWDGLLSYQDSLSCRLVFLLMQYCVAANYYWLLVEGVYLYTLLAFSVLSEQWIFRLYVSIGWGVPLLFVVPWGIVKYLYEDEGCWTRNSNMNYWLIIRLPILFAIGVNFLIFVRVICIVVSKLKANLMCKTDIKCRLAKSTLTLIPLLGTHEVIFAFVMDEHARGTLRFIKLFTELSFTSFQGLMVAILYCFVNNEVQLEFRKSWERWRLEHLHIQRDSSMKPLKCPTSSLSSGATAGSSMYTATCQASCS

| Emax (human GLP1 receptor) | EC50 (human GLP1 receptor) | Emax (human GLP2 receptor) | EC50 (human GLP2 receptor) | SMILES |
| --- | --- | --- | --- | --- |
| 97% | 2 nM | 100% | 0.00158 nM | CCCC[C@H](NC(=O)[C@H](CCC(=O)O)NC(=O)[C@H](CC(=O)O)NC(=O)[C@H](CO)NC(=O)[C@H](Cc1ccccc1)NC(=O)[C@H](CO)NC(=O)CNC(=O)[C@H](CC(=O)O)NC(=O)C(C)(C)NC(=O)[C@@H](N)Cc1c[nH]cn1)C(=O)N[C@H](Cc1ccccc1)C(=O)N[C@H](C(=O)N[C@H](C(=O)N[C@@H](CC(C)C)C(=O)N[C@@H](CC(=O)O)C(=O)N[C@H]1CCCCNC(=O)C[C@@H](C(=O)N[C@@H](CC(=O)O)C(=O)N[C@@H](Cc2ccccc2)C(=O)N[C@H](C(=O)N[C@@H](CC(N)=O)C(=O)N[C@@H](Cc2c[nH]c3ccccc23)C(=O)N[C@@H](CC(C)C)C(=O)N[C@H](C(=O)N[C@@H](CCC(N)=O)C(=O)N[C@H](C(=O)N[C@@H](CCCCN)C(=O)N[C@H](C(=O)N[C@H](C(=O)N[C@@H](CC(=O)O)C(N)=O)[C@@H](C)O)[C@@H](C)CC)[C@@H](C)O)[C@@H](C)CC)[C@@H](C)CC)NC(=O)[C@H](C)NC(=O)[C@H](C)NC(=O)[C@H](CCCCN)NC1=O)[C@@H](C)CC)[C@@H](C)O [Example 103] (H-H[Aib]DGSFSDE[Nle][dF]TILDKKAADDFINWLIQTKITD-NH2; lactam 16-20) |
| 96.9% | 1 nM | 99.7% | 0.1 nM | CCCC[C@H](NC(=O)[C@H](CCC(=O)O)NC(=O)[C@@H]1CC(=O)NCCCC[C@H](NC(=O)[C@H](CCC(N)=O)NC(=O)C(C)(C)NC(=O)[C@@H](N)Cc2c[nH]cn2)C(=O)N[C@@H](CO)C(=O)N[C@@H](Cc2ccccc2)C(=O)N[C@@H](CO)C(=O)N1)C(=O)N[C@H](Cc1ccccc1)C(=O)N[C@H](C(=O)N[C@@](C)(CC(C)C)C(=O)N[C@@H](CC(C)C)C(=O)N[C@@H](CC(=O)O)C(=O)N[C@H]1CCC(=O)NCCCC[C@@H](C(=O)N[C@@H](CC(=O)O)C(=O)N[C@@H](Cc2ccccc2)C(=O)N[C@H](C(=O)N[C@H]2CCC(=O)NCCCC[C@@H](C(=O)N[C@H]3CCC(=O)NCCCC[C@@H](C(N)=O)NC(=O)[C@H]([C@@H](C)O)NC(=O)[C@H]([C@@H](C)CC)NC(=O)[C@H](CCCCN)NC3=O)NC(=O)[C@H]([C@@H](C)CC)NC(=O)[C@H](CC(C)C)NC(=O)[C@H](Cc3c[nH]c4ccccc34)NC2=O)[C@@H](C)CC)NC(=O)[C@H](C)NC(=O)[C@H](C)NC(=O)[C@H](CCCCN)NC1=O)[C@@H](C)O [Example 63] (H-H[Aib]QKSFSDE[Nle][dF]T[αMeL]LDEKAAKDFIEWLIKEKITK-NH2; lactam 4-8, 16-20, 24-28, 29-33 (inferred); C-terminus assumed) |
| 87.3% | 10 nM | 103% | 0.0501 nM | CCCC[C@H](NC(=O)[C@H](CCC(=O)O)NC(=O)[C@@H]1CC(=O)NCCCC[C@H](NC(=O)[C@H](CC(=O)O)NC(=O)C(C)(C)NC(=O)[C@@H](N)Cc2c[nH]cn2)C(=O)N[C@@H](CO)C(=O)N[C@@H](Cc2ccccc2)C(=O)N[C@@H](CO)C(=O)N1)C(=O)N[C@H](Cc1ccccc1)C(=O)N[C@H](C(=O)N[C@H](C(=O)N[C@@H](CC(C)C)C(=O)N[C@@H](CC(=O)O)C(=O)N[C@@H](CC(C)C)C(=O)N[C@@H](CCCCN)C(=O)N[C@@H](C)C(=O)N[C@@H](C)C(=O)N[C@@H](CCCCN)C(=O)N[C@@H](CC(=O)O)C(=O)N[C@@H](Cc1ccccc1)C(=O)N[C@H](C(=O)N[C@@H](CC(N)=O)C(=O)N[C@@H](Cc1c[nH]c2ccccc12)C(=O)N[C@@H](CC(C)C)C(=O)N[C@H](C(=O)N[C@@H](CCC(N)=O)C(=O)N[C@H](C(=O)N[C@@H](CCCCN)C(=O)N[C@H](C(=O)N[C@H](C(=O)N[C@@H](CC(=O)O)C(N)=O)[C@@H](C)O)[C@@H](C)CC)[C@@H](C)O)[C@@H](C)CC)[C@@H](C)CC)[C@@H](C)CC)[C@@H](C)O [Example 84] (H-H[Aib]DKSFSDE[Nle][dF]TILDLKAAKDFINWLIQTKITD-NH2; lactam 4-8; C-terminus assumed) |
